# Source: patent US20150225377A1, “VEGFR3 INHIBITORS” (CANCER THERAPEUTICS CRC PTY LIMITED, priority 2012, published 2015)
# Molecular target: T1, P397Y-FAK (Homo sapiens, UniProt Q05397)
# T1 construct: endogenous in cells; host or cells: MDA-231-LNA
# Assay: P397Y-FAK inhibition MSD platform cellular biomarker assay
# Assay type: cell-based
# Conditions: MDA-231-LNA cells, 1 hour compound
# Procedure: 96-well plates (cat#MA6000, Meso Scale Discovery) are coated with 30 μL/well of mouse monoclonal FAK antibody [63D5] (cat#ab72140, Abcam) pre-diluted in PBS to a concentration of 1 mg/mL. The plates are sealed with adhesive film and incubated for 16 hours at 4° C. The antibody is then flicked out of the plates and 150 μL of 3% [w/v] Blocker A (cat#R93AA-1, Meso Scale Discovery) is added. The plates are resealed with adhesive film and incubated at room temperature on a shaker set at medium speed for 2 hours. The plates are then washed three times with a solution containing 50 mM Tris-HCl pH 7.5, 0.15 M NaCl and 0.02% Tween-20, before cell lysate addition described below.
# Cells are split 1:2 into T150 cell culture flasks 2 days prior to compound treatment. On the day prior to compound treatment, 200 μL media containing 20,000 cells is seeded into all wells of white, clear-bottom, TC treated, pclear, 96-well microtitre plates (cat#655098, Greiner Bio-One), and the plates are incubated at 37° C. and 5% CO2 for […]. 1 pUwell of compound is then added from dilution series prepared in DMSO. Negative control wells receive the same volume of DMSO without compounds, and positive control wells receive 2 μM of a control compound in the same volume of DMSO. Cells are treated for 1 hour at 37° C. and 5% CO2. The media/compounds are then flicked off and 55 pUwell of ice-cold complete lysis buffer is added. Complete lysis buffer is prepared by adding 1 tablet PhosSTOP complete phosphatase inhibitor (cat#04906837001, Roche) and 1 tablet Complete, Mini, EDTA-free, protease inhibitor (cat#04693159001, Roche) per 10 mL of incomplete lysis buffer (150 mM NaCl, 20 mM Tris-HCl pH 7.5, 1 mM EDTA, 1 mM EGTA, 1% Triton-X 100). Plates are incubated on ice for 30 minutes, with 30 seconds high speed plate shaking every 5 minutes. 40 μL/well of cell lysate is transferred to the coated, blocked and washed 96-well microtitre plates described above. The 96-well plates are sealed with adhesive film and incubated for 16 hours at 4° C. The plates are then washed three times with a solution containing 50 mM Tris-HCl pH 7.5, 0.15 M NaCl and 0.02% Tween-20 and tapped dry. 25 μL/well of detection solution (1% [w/v] Blocker A (cat#R93AA-1, Meso Scale Discovery) in 50 mM Tris-HCl pH 7.5, 0.15 M NaCl and 0.02% Tween-20, with 1:600 rabbit polyclonal FAK phospho Y397 antibody (cat#ab39967, Abcam), 1:1000 anti-rabbit sulfo-tag antibody (cat#R32AB-1 Meso Scale Discovery) and 1:40 reconstituted Blocker D-M (cat#D609-0100, Rockland Immunochemicals for Research)) is added, and the plates resealed with adhesive film and incubated for 1 hour at room temperature on a plate shaker set to medium speed. Plates are then washed three times with a solution containing 50 mM Tris-HCl pH 7.5, 0.15 M NaCl and 0.02% Tween-20 and tapped dry. 150 μL/well of Read Buffer T+Surfactant (cat#R92TC-1, Meso Scale Discovery) is then added, and pFAK-397 levels quantified using a Meso Scale Discovery SECTOR Imager 6000 instrument.
# T1 sequence (Q05397 2-1052 limits assumed, stated change not applied): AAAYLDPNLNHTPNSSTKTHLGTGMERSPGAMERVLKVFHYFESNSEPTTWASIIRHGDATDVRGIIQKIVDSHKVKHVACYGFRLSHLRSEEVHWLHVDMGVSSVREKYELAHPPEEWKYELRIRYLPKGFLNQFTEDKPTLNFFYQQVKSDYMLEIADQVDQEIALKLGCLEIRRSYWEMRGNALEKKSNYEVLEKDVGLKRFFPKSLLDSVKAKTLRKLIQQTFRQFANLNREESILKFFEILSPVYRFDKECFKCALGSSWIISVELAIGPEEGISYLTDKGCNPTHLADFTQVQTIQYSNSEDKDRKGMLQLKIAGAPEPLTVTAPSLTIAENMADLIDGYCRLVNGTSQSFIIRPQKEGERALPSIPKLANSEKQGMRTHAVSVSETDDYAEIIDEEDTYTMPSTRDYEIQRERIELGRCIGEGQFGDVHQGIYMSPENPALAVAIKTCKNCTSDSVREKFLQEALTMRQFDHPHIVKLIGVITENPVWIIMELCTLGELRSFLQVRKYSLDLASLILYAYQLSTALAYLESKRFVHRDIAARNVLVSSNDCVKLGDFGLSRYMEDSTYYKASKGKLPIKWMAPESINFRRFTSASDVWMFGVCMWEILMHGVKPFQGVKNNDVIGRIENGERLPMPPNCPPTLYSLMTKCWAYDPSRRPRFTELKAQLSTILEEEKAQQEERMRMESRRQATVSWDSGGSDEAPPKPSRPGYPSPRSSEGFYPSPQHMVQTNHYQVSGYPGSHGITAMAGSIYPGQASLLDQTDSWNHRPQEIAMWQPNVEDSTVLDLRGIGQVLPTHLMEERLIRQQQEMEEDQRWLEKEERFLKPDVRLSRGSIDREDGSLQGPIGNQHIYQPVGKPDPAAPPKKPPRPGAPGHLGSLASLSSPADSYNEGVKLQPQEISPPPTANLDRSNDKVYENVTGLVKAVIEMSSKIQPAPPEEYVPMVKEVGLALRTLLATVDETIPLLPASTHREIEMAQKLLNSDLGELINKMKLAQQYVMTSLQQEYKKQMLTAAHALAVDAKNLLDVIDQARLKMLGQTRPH
row,Compound,IC50
1,"NCc1ccc(Nc2ncc(C(F)(F)F)c(CCc3ccccc3CC(N)=O)n2)cc1 [Compound 3, 2-(2-(2-(2-((4-(Aminomethyl)phenyl)amino)-5-(trifluoromethyl)pyrimidin-4-yl)ethyl)phenyl)acetamide]",62 nM
2,"Cc1cnc(Nc2ccc(C3CCN(C)CC3)nc2)nc1CCc1ccccc1CC(N)=O [Compound 5, 2-(2-(2-(5-methyl-2-((6-(1-methylpiperidin-4-yl)pyridin-3-yl)amino)pyrimidin-4-yl)ethyl)phenyl)acetamide]",> 2000 nM
3,"NC(=O)Cc1ccccc1CCc1nc(Nc2ccc(C(=O)N3CCNCC3)cc2)ncc1C(F)(F)F [Compound 6, 2-(2-(2-(2-((4-(piperazine-1-carbonyl)phenyl)amino)-5-(trifluoromethyl)pyrimidin-4-yl)ethyl)phenyl)acetamide]",940 nM
4,"Cc1cc(Nc2ncc(C(F)(F)F)c(CCc3ccccc3CC(N)=O)n2)ccc1C1CCNCC1 [Compound 11, 2-(2-(2-(2-((3-methyl-4-(piperidin-4-yl)phenyl)amino)-5-(trifluoromethyl)pyrimidin-4-yl)ethyl)phenyl)acetamide]",16 nM
5,"Cc1cc(Nc2ncc(C(F)(F)F)c(CCc3ccccc3CC(N)=O)n2)ccc1C1CCN(C)CC1 [Compound 12, 2-(2-(2-(2-((3-methyl-4-(1-methylpiperidin-4-yl)phenyl)amino)-5-(trifluoromethyl)pyrimidin-4-yl)ethyl)phenyl)acetamide]",30 nM
6,"Cc1cnc(Nc2ccc(C3CCNCC3)cc2)nc1CCc1ccccc1CC(N)=O [Compound 16, 2-(2-(2-(5-methyl-2-((4-(piperidin-4-yl)phenyl)amino)pyrimidin-4-yl)ethyl)phenyl)acetamide]",> 2000 nM
7,"CC(N)c1ccc(Nc2ncc(C(F)(F)F)c(CCc3ccccc3CC(N)=O)n2)cc1 (stereo not drawn) [Compound 18, 2-(2-(2-(2-(4-(1-aminoethyl)phenylamino)-5-(trifluoromethyl)pyrimidin-4-yl)ethyl)phenyl)acetamide]",25 nM
8,"Cc1cnc(Nc2cccnc2)nc1CCc1ccccc1CC(N)=O [Compound 24, 2-(2-(2-(5-methyl-2-(pyridin-3-ylamino)pyrimidin-4-yl)ethyl)phenyl)acetamide]",> 2000 nM
9,"Cc1cnc(Nc2ccc(OC3CCNCC3)cc2)nc1CCc1ccccc1CC(N)=O [Compound 26, 2-(2-(2-(5-methyl-2-((4-(piperidin-4-yloxy)phenyl)amino)pyrimidin-4-yl)ethyl)phenyl)acetamide]",> 2000 nM
10,"Cc1cnc(Nc2cnn(C)c2)nc1CCc1ccccc1CC(N)=O [Compound 28, 2-(2-(2-(5-methyl-2-((1-methyl-^1H-pyrazol-4-yl)amino)pyrimidin-4-yl)ethyl)phenyl)acetamide]",> 2000 nM
11,"Cc1cnc(Nc2ccc(C3(N)COC3)cc2)nc1CCc1ccccc1CC(N)=O [Compound 31, 2-(2-(2-(2-(4-(3-aminooxetan-3-yl)phenylamino)-5-methylpyrimidin-4-yl)ethyl)phenyl)acetamide]",> 2000 nM
12,"Cc1cnc(Nc2cnn(C3CCNCC3)c2)nc1CCc1ccccc1CC(N)=O [Compound 33, 2-(2-(2-(5-Methyl-2-((1-(piperidin-4-yl)-^1H-pyrazol-4-yl)amino)pyrimidin-4-yl)ethyl)phenyl)acetamide]",> 2000 nM
